Reference: article PMC5423974 (European Journal of Clinical Pharmacology, 2017)
Values joined by “and” are separate entries in the source; they are usually repeats but may differ in a detail not shown here. Equal entries are not always repeated. Where two headings read alike, the source gives them in different places. Marks after values point to notes of the source that are not given here.

What was measured:
[1] = Pooled analysis of non-compartmental plasma PK of single-dose selumetinib in healthy subjects, by ethnicity; format: in vivo, human; conditions: for DN AUC / DN AUC(0–12) / DN Cmax: geometric mean (%CV)
Procedure: All the studies included in the pooled analysis were conducted in accordance with the ethical principles outlined in the Declaration of Helsinki and the International Council on Harmonization Good Clinical Practice. Written informed consent was obtained from all subjects prior to any study-related procedures.
The pooled analysis database was constructed using data collected in 10 studies (Online Resource 1). PK data were taken from Study 86 (Asian study) and Studies 66, 69, 71, 78, 80, 81, 82, 83 and 85 (Western studies), while pharmacogenetic data were obtained from Study 86 (Asian study) and Studies 66 and 83 (Western studies). Informed consent for genetic assessment was as follows: Study 66, 21 of 27 volunteers gave consent (one of these volunteers discontinued treatments); Study 83, all 26 volunteers gave consent; Study 86, 45 of 72 volunteers gave consent.
Further inclusion criteria for the database included fasted subjects dosed with the selumetinib capsule formulation used for Phase III. This meant exclusion of data from other oral formulations used in study 78 and intravenous formulation used in study 80. Data were included solely from study arms where there was an absence of other treatments (e.g. rifampicin, fluconazole) and from subjects with normal renal and hepatic function.
A merged dataset containing subject identifier, non-compartmental PK parameters and demographics was constructed.
The PK parameters AUC, AUC0–12 and Cmax were normalized (abbreviated as DN) for each subject, by dividing the specific PK parameter by the nominal dose (in mg units) and for dose per kg of body weight (abbreviated as DWN) using the following formula: PK parameter value / (nominal dose in mg units / subjects baseline body weight in kg units).
The majority of subjects in the Western studies were of White ethnicity, thus this formed the reference category for comparison. Statistical comparisons of selumetinib PK were undertaken between the following ethnic groups: Western vs All Asian; White vs Black; White vs All Asian; White vs Japanese; White vs non-Japanese Asian; White vs Indian. The comparisons were performed by fitting multivariate models to the PK parameters of interest (e.g. dose-normalized AUC and Cmax), with a stepwise backward selection of the covariates including ethnicity, age, sex, and weight.
Bioanalysis was performed by Covance, USA. […] After addition of deuterated internal standard, samples were extracted by protein precipitation by the addition of 4 volumes of methanol:acetonitrile. After centrifugation, the supernatants were […] to dryness under nitrogen at 50°C and reconstituted in methanol;water before analysis. Extraction recovery was approximately 93%. […] The typical liquid chromatography system was a Prominence SIL-20AC (Shimadzu, Tokyo, Japan). A Phenomenex Luna C18 column was used and maintained at 30°C. A gradient mobile phase system was used with 0.1% formic acid in water (A) or acetonitrile (B) with a flow rate of 0.500 mL/min and the gradient running from 25% B to 65% B over 2 minutes then increasing to 95% B over 0.1 minutes and held for 0.5 minutes before re-equilibration. The mass spectrometer used was an API 5000 or 5500 triple quadruple mass spectrometer (AB Sciex, Foster City, CA, USA). This was run in positive electrospray, multiple reaction monitoring, with an ionspray voltage of 5500 V and TurboIonSpray temperature of 600°C with transitions of 459.0/397.2 monitored.

[2] = Dose-exposure proportionality of AUC and Cmax (Power model, scatter plots); format: in vivo, human
Procedure: Dose-exposure proportionality for AUC and Cmax was assessed for non-Japanese Asian subjects using data from Study 86, and for the pooled analysis Western group by applying the Power model to data from the pooled analysis: Log(Y) = α + β•log(Dose) + ε, where Y = AUC or Cmax. Intercept and slope estimates (including point estimate, standard error, and 90% confidence interval [CI]) were provided for each parameter, and dose proportionality plots were generated for AUC and Cmax. All statistical analyses were performed using SAS version 9.2.

[3] = Safety and tolerability in Study 86 (Asian study); format: in vivo, human
Source text: Safety and tolerability findings obtained from Study 86 were summarized and compared descriptively to the safety and tolerability findings from the studies in Western subjects. Additional safety and tolerability data for the Western studies are reported in detail elsewhere and include references.

[4] = system: cytochrome P450 2C19 (CYP2C19); design: method as in earlier work; conditions: ref 1 Report nos. Be000021–21 and D6244 KMN036, data on file, AstraZeneca; cited from earlier work
[5] = human, in vivo; cited from earlier work
[6] = All Asian (N = 72), healthy subjects, single dose, doses pooled
[7] = All Asian group compared with Western group
[8] = Black (N = 87), healthy subjects, single dose, doses pooled
[9] = Indian (N = 9), healthy subjects, single dose
[10] = Japanese (N = 27), healthy subjects, single dose, doses pooled
[11] = Western (N = 236), healthy subjects, single dose, doses pooled
[12] = White (N = 149), healthy subjects, single dose, doses pooled
[13] = non-Japanese Asian (N = 36), healthy subjects, single dose, doses pooled
[14] = non-Japanese Asian compared to White
[15] = Study 86, Asian healthy subjects, 25, 35 and 50 mg

DN Cmax [1, 6]: 26.3 (30.9) ng/mL/mg
tmax ([1]; All Asian (N = 72), healthy subjects, single dose, median (min, max)): 1.0 (1, 4) h
percentage by which dose-normalized AUC is higher [1, 7]: 35%
percentage by which dose-normalized Cmax is higher [1, 7]: 39%
dose-normalized selumetinib exposure higher ([1]; Asian subjects compared with Western subjects, single dose 25 to 75 mg): 35–39%
DN Cmax [1, 8]: 16.9 (39.6) ng/mL/mg
tmax ([1]; Black (N = 87), healthy subjects, single dose, median (min, max)): 1.0 (1, 4) h
DN Cmax [1, 9]: 28.1 (16.0) ng/mL/mg
tmax ([1]; Indian (N = 9), healthy subjects, single dose, median (min, max)): 1.0 (1, 2) h
percentage increase in geomean dose-normalized AUC ([1]; Indian compared to White): 22%
percentage increase in geomean dose-normalized Cmax ([1]; Indian compared to White): 41%
DN Cmax [1, 10]: 28.7 (31.0) ng/mL/mg
tmax ([1]; Japanese (N = 27), healthy subjects, single dose, median (min, max)): 1.0 (1, 3) h
percentage increase in geomean dose-normalized AUC ([1]; Japanese compared to White): 51%
percentage increase in geomean dose-normalized Cmax ([1]; Japanese compared to White): 45%
t1/2 ([1]; Western (N = 235), healthy subjects, single dose, arithmetic mean (SD)): 9.1 (2.91)^‡ h
DN Cmax [1, 11]: 17.4 (35.6) ng/mL/mg
tmax ([1]; Western (N = 236), healthy subjects, single dose, median (min, max)): 1.0 (1, 4) h
DN Cmax [1, 12]: 17.7 (33.2) ng/mL/mg
tmax ([1]; White (N = 149), healthy subjects, single dose, median (min, max)): 1.0 (1, 4) h
half-life ([1]; human, plasma, oral, 25 mg, Indian (N = 9), healthy subjects, single dose, arithmetic mean (SD)): 9.5 h
half-life ([1]; human, plasma, oral, All Asian (N = 72), healthy subjects, single dose, arithmetic mean (SD)): 10.4 h
half-life ([1]; human, plasma, oral, Black (N = 87), healthy subjects, single dose, arithmetic mean (SD)): 8.7 h
half-life ([1]; human, plasma, oral, Japanese (N = 27), healthy subjects, single dose, arithmetic mean (SD)): 11.5 h
half-life ([1]; human, plasma, oral, White (N = 148), healthy subjects, single dose, arithmetic mean (SD)): 9.3 h
tmax ([1]; human, plasma, oral, all ethnic groups, read-out: median tmax): 1 to 1.6 h
half-life ([1]; human, plasma, oral, non-Japanese Asian (N = 36), healthy subjects, single dose, arithmetic mean (SD)): 9.8 h
tmax ([1]; human, plasma, oral, non-Japanese Asian (N = 36), healthy subjects, single dose, median (min, max), read-out: tmax): 1.6 h
DN Cmax [1, 13]: 24.3 (32.3) ng/mL/mg
differences in the geomeans for dose-normalized AUC and dose-normalized Cmax ([1]; non-Japanese Asian and Indian against Japanese): 2 to 18%
percentage increase in geomean dose-normalized AUC [1, 14]: 37%
percentage increase in geomean dose-normalized Cmax [1, 14]: 20%
dose-exposure proportionality (visual assessment of scatter plots, AUC and Cmax) ([2]; Western group, single doses of 25 to 75 mg): Approximate dose proportionality
dose-exposure proportionality (visual assessment of scatter plots, AUC and Cmax) ([2]; non-Japanese Asian group, 25 to 50 mg): approximate dose proportionality
SMILES: Cn1cnc2c(F)c(Nc3ccc(Br)cc3Cl)c(C(=O)NOCCO)cc21 [selumetinib, Selumetinib]
DN AUC [1, 6]: 79.8 ng.h/mL/mg and 79.8 (23.6) ng.h/mL/mg
DN AUC(0–12) [1, 6]: 61.7 ng.h/mL/mg and 61.7 (24.6) ng.h/mL/mg
DN AUC [1, 8]: 53.4 ng.h/mL/mg and 53.4 (26.4) ng.h/mL/mg
DN AUC(0–12) [1, 8]: 43.3 ng.h/mL/mg and 43.3 (26.7) ng.h/mL/mg
DN AUC [1, 9]: 69.5 ng.h/mL/mg and 69.5 (16.7) ng.h/mL/mg
DN AUC(0–12) [1, 9]: 53.5 ng.h/mL/mg and 53.5 (19.6) ng.h/mL/mg
DN AUC [1, 10]: 84.8 ng.h/mL/mg and 84.8 (21.0) ng.h/mL/mg
DN AUC(0–12) [1, 10]: 65.7 ng.h/mL/mg and 65.7 (24.1) ng.h/mL/mg
DN AUC ([1]; Western (N = 235), healthy subjects, single dose, doses pooled): 52.4 ng.h/mL/mg and 52.4 (24.9)^‡ ng.h/mL/mg
DN AUC(0–12) [1, 11]: 42.9 ng.h/mL/mg and 42.9 (25.1) ng.h/mL/mg
DN AUC ([1]; White (N = 148), healthy subjects, single dose, 25-75 mg doses pooled): 51.9 ng.h/mL/mg and 51.9 (23.9)^† ng.h/mL/mg
DN AUC(0–12) [1, 12]: 42.7 ng.h/mL/mg and 42.7 (24.2) ng.h/mL/mg
DN AUC [1, 13]: 78.9 ng.h/mL/mg and 78.9 (25.4) ng.h/mL/mg
DN AUC(0–12) [1, 13]: 61.1 ng.h/mL/mg and 61.1 (24.6) ng.h/mL/mg
number of AEs reported ([3]; Study 86, Asian healthy subjects): 21
AE leading to discontinuation of selumetinib [3, 15]: no AE led to the discontinuation
serious adverse event [3, 15]: no subject experienced a serious adverse event
safety or tolerability concerns ([3]; Study 86, Asian healthy subjects, any dose level (25, 35 and 50 mg)): no safety or tolerability concerns
number of AEs deemed related to selumetinib by the Investigator ([3]; Study 86, of the 21 AEs reported): 14
substrate of enzyme [4]: substrate
serious AEs [5]: no serious AEs
